Measurements as given in patent publication US11535939B2, “Surface treatment method for copper or copper alloy, surface treatment liquid for sterilizing copper or copper alloy, and sterilization method using copper or copper alloy treated by said method” (NATIONAL INSTITUTE FOR MATERIALS SCIENCE, priority 2017, dated 2022).

Tested on: Escherichia coli (E. coli)
Experiment: Simple test for antimicrobial activity using E. coli based on JIS Z2801 (0.9% NaCl, fluorescent dye viability)
Format: cell-based
Details: Example 5, FIG. 8, Cu sample piece, 5 minutes after seeding
Excerpt: In this Example, effects of GSH, which is a biological reducing substance, on antimicrobial activity of copper and copper alloys were studied by a simple test for antimicrobial activity using E. coli based on the test for antimicrobial activity specified in JIS Z2801. As shown in FIG. 6(a), first, a copper (Cu) sample piece (15 mm square) was placed on the bottom surface of a glass container. Next, on the upper surface of the sample piece, 0.9% NaCl (−GSH) not containing GSH as a solvent or a 0.9% NaCl solution (+GSH) containing GSH at a concentration of 1.0 mM as a solvent was used to seed about 1.0×10^6 cells/50 μL of E. coli. This bacterial suspension was covered with a polyethylene (PE) sheet so as not to dry the bacterial suspension. Then, the glass container was placed under static culture condition of 35±1° C. The PE sheet was removed 0 minute (immediately after seeding), 5 minutes, and 10 minutes after seeding of E. coli, and 1 mL of 0.9% NaCl+0.1 mM EDTA-2Na was added to the bacterial suspension, and the bacterial suspension was collected by pipetting. A fluorescent dye was added to the collected bacterial suspension, and viability of E. coli was determined by measuring fluorescence intensity. In order to avoid a contact between the back surface of the Cu sample piece and the solution when collecting E. coli, the back surface of the Cu sample piece was coated with a thin silicone sheet in advance. […] GSH was added at a concentration of 0 mM (no addition), 1.0 mM, 2.0 mM, and 10.0 mM, and the results are shown in this order from the left. In FIG. 8, the longitudinal axis represents a ratio of bacterial viability (relative viability) normalized to the bacterial viability in the control test as 1. […] Note that the time from seeding of E. coli to collection of a bacterial suspension was set to 5 minutes.

Compound: N[C@@H](CCC(=O)N[C@@H](CS)C(=O)NCC(=O)O)C(=O)O [GSH, Reduced glutathione]
- bacterial viability (relative viability) (GSH 1.0 mM): decreased more than a case without GSH
- bacterial viability (relative viability) (GSH 2.0 mM): equivalent or greater than the result without GSH
- bacterial viability (relative viability) (GSH 10.0 mM): equivalent or greater than the result without GSH
